Experimental data reported in US20150005347A1, “NITROGEN-CONTAINING HETEROCYCLIC DERIVATIVE HAVING 2-IMINO GROUP AND PEST CONTROL AGENT INCLUDING THE SAME” (MEIJI SEIKA PHARMA CO., LTD., priority 2012, published 2015).
Read-outs that look alike come from different tables or passages of the source.

Columns and labels:
Type in all cases: in vivo
[1] = tested on: Plutella xylostella; assay: Plutella xylostella control test, cabbage leaf disk foliar spray; settings: Plutella xylostella, foliar
Outline: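 Cabbage leaf disks (5.0 cm) were sprayed with compound in 50% acetone water with 0.05% Tween20, air-dried, then infested with second instar larvae. Disks were held at 25° C under 16 h light/8 h dark, in duplicate. Percent larval mortality was calculated as dead over total larvae.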

[2] = tested on: Spodoptera litura; assay: Pest control test against Spodoptera litura, cabbage leaf disk foliar spray; settings: Spodoptera litura, foliar
Method: Test Example 2 Pest Control Test Against Spodoptera litura
(§1) A leaf disk having a diameter of 5.0 cm was cut out from a cabbage in pot culture, and a drug solution of the compound of the present invention at a predetermined concentration, which had been prepared so as to be a 50% acetone water (0.05% Tween20 available), was sprayed to the leaf disk. After an air drying process, third instar larvae were released thereto. Thereafter, the larvae were left to stand in a thermostatic chamber (16 hours of light period-8 hours of dark period) at 25° C. […] Test in duplicate.
(§2) Mortality of larvae(%)={number of dead larvae/(number of survived larvae+number of dead larvae)}×100

[3] = tested on: Callosobruchus chinensis; assay: Pest control test against Callosobruchus chinensis, topical treatment of adults
Method: Test Example 5 Pest control test against Callosobruchus chinensis
1 μL (/head) of a drug solution of the compound of the present invention prepared at a predetermined concentration with acetone was treated to the back of Callosobruchus chinensis adults. After the drug treatment, the adults were transferred to a plastic cup and left to stand in a thermostatic chamber at 25° C.
Rate of agonized adults(%)={number of dead adults/(number of survived adults+number of dead adults)}×100

[4] = tested on: Laodelphax striatella; assay: Pest control test of Laodelphax striatella, foliar spray on rice seedling; settings: Laodelphax striatellus, foliar
Method: Test Example 6 Pest Control Test of Laodelphax striatella
as §1, with “A” for “A leaf disk having a diameter of 5.0 cm was cut out from a cabbage in pot culture, and a”, “was foliar” for “was”, “a rice seedling in pot culture.” for “the leaf disk.”, “second” for “third”
as §2

[5] = tested on: Nilaparvata lugens; assay: Pest control test of Nilaparvata lugens, soil irrigation treatment; settings: soil irrigation treatment
Method: Test Example 12 Pest Control Test of Nilaparvata lugens
(§3) A rice seedling in pot culture was subjected to soil irrigation treatment with a drug solution of the compound of the present invention at a predetermined concentration, which had been prepared so as to be a 10% acetone water. Three days after the treatment, ten second instar larvae of Nilaparvata lugens were each released thereto. Thereafter, the larvae were left to stand in a thermostatic chamber (16 hours of light period-8 hours of dark period) at 25° C. […] The test was performed in duplicate.
as §2

[6] = tested on: Nephotettix cincticeps; assay: Pest control test of Nephotettix cincticeps, soil irrigation treatment; settings: for % Mortality, Test Example 14 Nephotettix cincticeps: soil irrigation treatment
Method: Test Example 14 Pest Control Test of Nephotettix cincticeps
as §3, with “five” for “ten”, “Nephotettix cincticeps” for “Nilaparvata lugens”
as §2

[7] = tested on: housefly instar larvae; assay: Pest control test of housefly instar larvae, treated bait; settings: Musca domestica, read-out: mortality of larvae, chrysalises and adults
Method: Test Example 22 Pest Control Test of Housefly Instar Larvae
Compound 1-20 was blended with an extremely small amount of DMSO, and then the resulting mixture was dissolved in deionized water to adjust the drug solution. 10 ml of the drug solution adjusted to be 30 ppm was added to 10 g of powder in which wheat bran, MF feed (Oriental Yeast Co., Ltd.) and dry yeast had been mixed in a ratio of 25:5:1, and the mixture was mixed well to prepare a bait for housefly instar larvae. A 50 ml Falcon tube was slightly filled with the bait including the compound, and 20 eggs were released thereto. The mouth of the Falcon tube was covered with a mesh-topped lid, and the tube was allowed to stand at 25° C. Twenty days after the drug treatment, the numbers of instar larvae, chrysalises and adults were measured, and the mortality of larvae, chrysalises and adults was calculated by the following equation. The test was performed by repeating each treatment twice.
Mortality of larvae,chrysalises and adults(%)={number of dead larvae,chrysalises and adults/(number of survived larvae,chrysalises and adults+number of dead larvae,chrysalises and adults)}×100

[8] = tested on: Haemaphysalis longicornis; assay: Pest control test of Haemaphysalis longicornis on the body surface of a dog; settings: 72 h, read-out: mortality of mites
Method: Test Example 25 Pest Control Test of Haemaphysalis longicornis
Three petri dishes with a diameter of 9 cm and a height of 1 cm were adhered to the back of a dog. Compound 1-20 of the present invention was dissolved in ethanol so as to be 5.35 mg/mL, and the mixture was added dropwise to the body surface of the dog in the petri dish. The petri dish was sufficiently dried, and then thirty young mites of Haemaphysalis longicornis were released thereto. Each dog was housed in a cage and reared under conditions of 10 hours of light period and 14 hours of dark period at 23° C. Three days after the release, the petri dishes were detached therefrom to measure the numbers of living and dead mites and blood-sucking individuals of young mites, and the mortality of mites was calculated according to the following equation.
Mortality of mites(%)={number of dead mites/(number of survived mites+number of dead mites)}×100

[9] = 72 h, read-out: mortality of larvae
[10] = read-out: % Mortality, Test Example1 Plutella xylostella

For `FC(F)(F)C(=S)/N=c1\ccccn1Cc1ccc(Cl)nc1` [Compound 1-20, N-[1-((6-chloropyridin-3-yl)methyl)pyridin-2(1H)-ylidene]-2,2,2-trifluoroethanethioamide], the mortality at 100 ppm [1, 9] was ≥ 80%, the mortality at 5 ppm [1, 10] was 50% and the mortality at 20 ppm [1, 10] was 100%. The mortality at 100 ppm [1, 10] was 100%, the mortality at 100 ppm [2, 9] was ≥ 80% and the mortality at 100 ppm ([2]; read-out: % Mortality, Test Example2 Spodoptera litura) was 90%. For the same molecule, the mortality of adults ([3]; 0.1 μg/head on the back of adults, twenty four hours after treatment) was ≥ 80%, the “% Mortality, Test Example5 Callosobruchus chinensis” value ([3]; Concentration 10 (ppm)) was 100% and the “% Mortality, Test Example5 Callosobruchus chinensis” value ([3]; Concentration 100 (ppm)) was 100%. For the same molecule, the mortality at 1.25 ppm ([4]; 144 h, read-out: mortality of larvae) was ≥ 80%, the mortality at 1.25 ppm ([4]; read-out: % Mortality, Test Example6 Laodelphax striatella) was 95% and the “% Mortality, Test Example 12 Nilaparvata lugens” value ([5]; 0.005 mg/pot) was 80%. The “% Mortality, Test Example 12 Nilaparvata lugens” value ([5]; 0.01 mg/pot) was 85%, the “% Mortality, Test Example 12 Nilaparvata lugens” value ([5]; 0.05 mg/pot) was 100% and the “% Mortality, Test Example 14 Nephotettix cincticeps” value ([6]; 0.0001 mg/pot) was 67%. The “% Mortality, Test Example 14 Nephotettix cincticeps” value ([6]; 0.001 mg/pot) was 67%, the “% Mortality, Test Example 14 Nephotettix cincticeps” value ([6]; 0.01 mg/pot) was 100% and the mortality of larvae ([6]; soil irrigation, 0.05 mg/seedling, three days after release) was ≥ 80%. The mortality at 30 ppm [7] was 100% and the mortality at 5350 µg/mL [8] was 100%.
